Converted amounts (≈) assume the structure as drawn.
Assay: Dissolution study of hydrophobic moieties in acetonitrile / 20 mM ammonium bicarbonate buffer solutions
Type: physicochemical
Conditions: for Observed Solubility: 21° C.; for solubility: 21 °C, aqueous with cosolvent or surfactant or cyclodextrin, thermodynamic from solid
Method: A dissolution study was performed on compounds 3 (commercially available—Sigma Aldrich P/N 172839 99%) 6, and 8 (Synthesis described above) at 21° C. in different buffer solutions containing a mixture of standard chromatographic solvents, e.g., acetonitrile and 20 mM aqueous […]. 20 mM aqueous ammonium bicarbonate was made by dissolving 474 mg ammonium bicarbonate in 300 mL MiliQ water.

[1] = 10% acetonitrile buffer solution, stated weight in stated buffer volume (3: 180 mL; 6: 120 mL; 8: 24 mL)
[2] = 30% acetonitrile buffer solution, stated weight in stated buffer volume (3: 50 mL; 6: 10 mL; 8: 1.4 mL)
[3] = 10 mL acetonitrile and 90 mL 20 mM ammonium bicarbonate (10% acetonitrile)
[4] = 30 mL acetonitrile and 70 mL 20 mM ammonium bicarbonate (30% acetonitrile)

| Observed Solubility [1] | Observed Solubility [2] | solubility [3] [µg/mL] | solubility [4] [µg/mL] | Observed Solubility (30% acetonitrile buffer solution, stated weight in stated buffer volume (3: 50 mL; 6: 10 mL; 8: 1.4 mL), 70 mg in 10 mL buffer) | Observed Solubility (30% acetonitrile buffer solution, stated weight in stated buffer volume (3: 50 mL; 6: 10 mL; 8: 1.4 mL), 90 mg in 10 mL buffer) | Structure (SMILES) |
| --- | --- | --- | --- | --- | --- | --- |
| At 6 mg: Not dissolved | At 30 mg: Not dissolved | < 30 | < 1000 |  |  | CCCCCCCCCCCC(C)=O [Compound 3, reference compound] |
| At 6 mg: Not dissolved |  | < 50 | ~8000 (≈ 32.5 mM) | At 70 mg: Dissolved | At 90 mg: Not dissolved | CCCCCCCCCCCOCC(O)CO (stereo not drawn) [Compound 6, 3-(undecyloxy)-1,2-propanediol] |
|  | At 200 mg: Dissolved | ~500 (≈ 2.29 mM) | ~140000 (≈ 641 mM) |  |  | CCCCCCCCCOCC(O)CO (stereo not drawn) [Compound 8, 3-nonoxypropane-1,2-diol] |

Reference: patent US10822323B2, “Acid labile surfactants” (Waters Technologies Corporation, priority 2018, dated 2020)
